Measured values from patent publication US20240424111A1, “Degrader Compounds and Uses Thereof” (CALICO LIFE SCIENCES LLC, priority 2021, published 2024).

Key:
PTPN2 [1] = target: T1, PTPN2 (Homo sapiens, UniProt P17706); experiment: HiBiT PTPN2 degradation in 293T.109 (HiBiT-PTPN2) cells, 24 hours; format: cell-based; settings: 293T.109 cells
T1 construct: expressed in transfected cells; host or cells: 293T.109 (HiBiT-PTPN2), derived from 293T WT (ATCC)
T1 sequence (P17706 1-415): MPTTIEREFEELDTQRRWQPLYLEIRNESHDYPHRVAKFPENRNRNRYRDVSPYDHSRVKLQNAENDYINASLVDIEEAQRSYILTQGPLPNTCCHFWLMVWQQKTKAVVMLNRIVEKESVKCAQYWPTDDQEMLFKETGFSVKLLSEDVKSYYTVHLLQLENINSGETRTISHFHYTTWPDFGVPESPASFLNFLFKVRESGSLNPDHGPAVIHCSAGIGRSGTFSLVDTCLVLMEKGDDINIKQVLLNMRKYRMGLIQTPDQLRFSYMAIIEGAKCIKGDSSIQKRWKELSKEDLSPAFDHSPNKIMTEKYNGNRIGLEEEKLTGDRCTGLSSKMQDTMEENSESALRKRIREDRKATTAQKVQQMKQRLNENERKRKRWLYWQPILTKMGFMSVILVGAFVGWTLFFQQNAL
Excerpt: Dulbecco's modified Eagle medium (DMEM) without phenol red and fetal bovine serum (FBS) were purchased from Gibco (Grand Island, NY, USA). Nano-Glo® HiBiT Lytic Assay System was purchased from Promega (Medison, WI, USA). 293T. 109 (HiBiT-PTPN2) cell line was generated by ectopically expressing PTPN2 with N-terminal HiBiT fusion tag in 293T WT cell line purchased from ATCC (Manassas, VA, USA). Cell culture flasks and 384-well microplates were acquired from VWR (Radnor, PA, USA).
PTPN2 Degradation Analysis
(§1) PTPN2 degradation was determined based on quantification of luminescent signal using Nano-Glo® HiBiT Lytic Assay kit. Test compounds were added to the 384-well plate from a top concentration of 10 μM with 11 points, half log titration in duplicates. 293T. 109 cells were added into 384-well plates at a cell density of 5000 cells per well. The plates were kept at 37° C. with 5% CO2 for 24 hours. The cells treated in the absence of the test compound were the negative control and the cells without Nano-Glo® HiBiT Lytic reagent were the positive control. After 24-hour incubation, Nano-Glo® HiBiT Lytic Assay reagents were added to the cells. Luminescence was acquired on EnVision™ Multilabel Reader (PerkinElmer, Santa Clara, CA, USA).

PTPN2 [2] = target: T2, PTPN2 (Mus musculus, UniProt Q06180); experiment: HiBiT PTPN2 degradation in B16F10.4 cells, 24 hours; format: cell-based
T2 construct: HiBiT; host or cells: B16F10.4
T2 sequence (Q06180 1-406): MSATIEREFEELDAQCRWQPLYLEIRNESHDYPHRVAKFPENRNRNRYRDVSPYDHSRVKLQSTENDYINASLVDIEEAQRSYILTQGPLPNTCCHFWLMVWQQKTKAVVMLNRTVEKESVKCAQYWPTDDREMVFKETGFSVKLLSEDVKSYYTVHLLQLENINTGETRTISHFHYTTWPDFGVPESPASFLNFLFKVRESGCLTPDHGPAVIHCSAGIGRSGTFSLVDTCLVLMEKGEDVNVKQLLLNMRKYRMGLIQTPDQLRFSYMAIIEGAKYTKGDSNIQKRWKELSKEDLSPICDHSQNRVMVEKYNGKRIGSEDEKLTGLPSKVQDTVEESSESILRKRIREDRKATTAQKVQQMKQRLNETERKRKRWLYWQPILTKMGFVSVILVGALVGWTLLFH
Description: as §1

Row | Compound | DC50 (PTPN2 [1]) | DC50 (PTPN2 [2])
1 | Cn1c(=O)n(C2CCC(=O)NC2=O)c2ccc(-c3ccc4c(cnn4CC(=O)Nc4ccc5c(F)c(N6CC(=O)NS6(=O)=O)c(O)cc5c4)c3)cc21 (stereo not drawn) [Degrader 29] | 50 to 150 nM | < 50 nM
2 | Cn1nc(C2CCC(=O)NC2=O)c2ccc(Nc3ccc(CC(=O)Nc4ccc5c(F)c(N6CC(=O)NS6(=O)=O)c(O)cc5c4)cc3)cc21 (stereo not drawn) [Degrader 48] | 50 to 150 nM | 50 to 150 nM
3 | Cn1nc(C2CCC(=O)NC2=O)c2ccc(C3CCN(C4CC(C(=O)Nc5ccc6c(F)c(N7CC(=O)NS7(=O)=O)c(O)cc6c5)C4)CC3)cc21 (stereo not drawn) [Degrader 30] | < 50 nM | 150 to 500 nM
4 | Cn1c(=O)n(C2CCC(=O)NC2=O)c2cc(F)c(N3CCN(CC(=O)Nc4ccc5c(F)c(N6CC(=O)NS6(=O)=O)c(O)cc5c4)CC3)cc21 (stereo not drawn) [Degrader 55] | 50 to 150 nM | 150 to 500 nM
5 | Cn1c(=O)n(C2CCC(=O)NC2=O)c2ccc(-n3ccc(CC(=O)Nc4ccc5c(F)c(N6CC(=O)NS6(=O)=O)c(O)cc5c4)n3)cc21 (stereo not drawn) [Degrader 88] | 150 to 500 nM | ≥ 500 nM
6 | C[C@@H]1CN(CC(=O)Nc2ccc3c(F)c(N4CC(=O)NS4(=O)=O)c(O)cc3c2)CCN1c1ccc2c(c1F)n(C)c(=O)n2C1CCC(=O)NC1=O (stereo partly drawn) [Degrader 148] | 50 to 150 nM | 150 to 500 nM
7 | Cc1nn(CC(=O)Nc2ccc3c(F)c(N4CC(=O)NS4(=O)=O)c(O)cc3c2)c(C)c1-c1ccc2c(c1)n(C)c(=O)n2C1CCC(=O)NC1=O (stereo not drawn) [Degrader 70] | < 50 nM | < 50 nM
8 | O=C1CCC(n2c3ccc(CCCCNC(=O)Nc4ccc5c(F)c(N6CC(=O)NS6(=O)=O)c(O)cc5c4)cc3c3cccnc32)C(=O)N1 (stereo not drawn) [Degrader 86] | ≥ 500 nM | ≥ 500 nM
9 | Cc1nn(CC(=O)Nc2ccc3c(F)c(N4CC(=O)NS4(=O)=O)c(O)cc3c2)c(C)c1-c1ccc2c(C3CCC(=O)NC3=O)nn(C)c2c1 (stereo not drawn) [Degrader 1] | < 50 nM | < 50 nM
10 | CCn1c(=O)n(C2CCC(=O)NC2=O)c2ccc(C3CCN([C@@H](CO)C(=O)Nc4ccc5c(F)c(N6CC(=O)NS6(=O)=O)c(O)cc5c4)CC3)cc21 (stereo partly drawn) [Degrader 64] | < 50 nM | 50 to 150 nM
11 | Cn1c(=O)n(C2CCC(=O)NC2=O)c2ccc(C3CN(CC(=O)Nc4ccc5c(F)c(N6CC(=O)NS6(=O)=O)c(O)cc5c4)CCC3F)cc21 (stereo not drawn) [Degrader 140] | 50 to 150 nM | 150 to 500 nM
12 | Cn1c(=O)n(C2CCC(=O)NC2=O)c2ccc([C@@H]3CCN(CC(=O)N4CC(Oc5ccc6cc(O)c(N7CC(=O)NS7(=O)=O)c(F)c6c5)C4)C3)cc21 (stereo partly drawn) [Degrader 16] | 150 to 500 nM | ≥ 500 nM
13 | Cn1c(=O)n(C2CCC(=O)NC2=O)c2ccc([C@@H]3CN(CC(=O)Nc4ccc5c(F)c(N6CC(=O)NS6(=O)=O)c(O)cc5c4)CC[C@H]3F)cc21 (stereo partly drawn) [Degrader 141] | < 50 nM | 50 to 150 nM
14 | Cn1c(=O)n(C2CCC(=O)NC2=O)c2ccc(Nc3ccn(CC(=O)Nc4ccc5c(F)c(N6CC(=O)NS6(=O)=O)c(O)cc5c4)n3)cc21 (stereo not drawn) [Degrader 107] | 50 to 150 nM | 50 to 150 nM
15 | Cn1c(=O)n(C2CCC(=O)NC2=O)c2ccc(Nc3cnn(CC(=O)Nc4ccc5c(F)c(N6CC(=O)NS6(=O)=O)c(O)cc5c4)c3)cc21 (stereo not drawn) [Degrader 42] | 50 to 150 nM | 50 to 150 nM
16 | Cn1c(=O)n(C2CCC(=O)NC2=O)c2ccc(N3CCN(CC(=O)Nc4ccc5c(F)c(N6CC(=O)NS6(=O)=O)c(O)cc5c4)CC3)c(F)c21 (stereo not drawn) [Degrader 57] | 50 to 150 nM | 150 to 500 nM
17 | CCn1c(=O)n(C2CCC(=O)NC2=O)c2ccc(-c3ccc(CC(=O)Nc4ccc5c(F)c(N6CC(=O)NS6(=O)=O)c(O)cc5c4)cc3F)cc21 (stereo not drawn) [Degrader 47] | 50 to 150 nM | < 50 nM
18 | O=C1CCC(N2CCc3cc(C4CCN(CC(=O)N5CCC(c6ccc7cc(O)c(N8CC(=O)NS8(=O)=O)c(F)c7c6)CC5)CC4)ccc32)C(=O)N1 (stereo not drawn) [Degrader 154] | 150 to 500 nM | 150 to 500 nM

Row | Compound | DC50 (PTPN2 [1]) | DC50 (PTPN2 [2])
19 | Cn1c(=O)n(C2CCC(=O)NC2=O)c2ccc(C3CCN(CC(=O)Nc4ccc5c(F)c(N6CC(=O)NS6(=O)=O)c(O)cc5c4)CC3=O)cc21 (stereo not drawn) [Degrader 113] | 50 to 150 nM | 150 to 500 nM
20 | Cn1c(=O)n([C@H]2CCC(=O)NC2=O)c2ccc(-c3ccc(CC(=O)Nc4ccc5c(F)c(N6CC(=O)NS6(=O)=O)c(O)cc5c4)cc3)cc21 [Degrader 27] | 50 to 150 nM | < 50 nM
21 | O=C1CCC(c2ccc(C3CCN(CC(=O)Nc4ccc5c(F)c(N6CC(=O)NS6(=O)=O)c(O)cc5c4)CC3)cc2)C(=O)N1 (stereo not drawn) [Degrader 128] | 150 to 500 nM | ≥ 500 nM
22 | Cn1c(=O)n(C2CCC(=O)NC2=O)c2ccc(-c3cc4cnn(CC(=O)Nc5ccc6c(F)c(N7CC(=O)NS7(=O)=O)c(O)cc6c5)c4cc3F)cc21 (stereo not drawn) [Degrader 83] | < 50 nM | < 50 nM
23 | Cc1nn(CC(=O)Nc2ccc3c(F)c(N4CC(=O)NS4(=O)=O)c(O)cc3c2)c2ccc(-c3ccc4c(c3)n(C)c(=O)n4C3CCC(=O)NC3=O)cc12 (stereo not drawn) [Degrader 95] | < 50 nM | < 50 nM
24 | Cn1c(=O)n(C2CCC(=O)NC2=O)c2ccc(N3CCC4(CC3)CN(CC(=O)Nc3ccc5c(F)c(N6CC(=O)NS6(=O)=O)c(O)cc5c3)C4)cc21 (stereo not drawn) [Degrader 84] | 50 to 150 nM | 150 to 500 nM
25 | O=C(CCC(=O)Nc1ccc2c(F)c(N3CC(=O)NS3(=O)=O)c(O)cc2c1)NCc1ccc2c3c(cccc13)C(=O)N2C1CCC(=O)NC1=O (stereo not drawn) [Degrader 54] | 150 to 500 nM | ≥ 500 nM
26 | Cn1c(=O)n([C@H]2CCC(=O)NC2=O)c2ccc(N3CCC(CC(=O)Nc4ccc5c(F)c(N6CC(=O)NS6(=O)=O)c(O)cc5c4)CC3)cc21 [Degrader 20] | 50 to 150 nM | 50 to 150 nM
27 | Cn1c(=O)n(C2CCC(=O)NC2=O)c2ccc(N3CCC(CCC(=O)Nc4ccc5c(F)c(N6CC(=O)NS6(=O)=O)c(O)cc5c4)CC3)cc21 (stereo not drawn) [Degrader 8] | 50 to 150 nM | 50 to 150 nM
28 | C[C@H](C(=O)Nc1ccc2c(F)c(N3CC(=O)NS3(=O)=O)c(O)cc2c1)C1CCN(c2ccc3c(c2)n(C)c(=O)n3C2CCC(=O)NC2=O)CC1 (stereo partly drawn) [Degrader 105] | 150 to 500 nM | 150 to 500 nM
29 | C[C@@H]1CN(c2ccc3c(c2)n(C)c(=O)n3C2CCC(=O)NC2=O)CC[C@H]1CC(=O)Nc1ccc2c(F)c(N3CC(=O)NS3(=O)=O)c(O)cc2c1 (stereo partly drawn) [Degrader 132] | 50 to 150 nM | 50 to 150 nM
30 | Cn1c(=O)n(C2CCC(=O)NC2=O)c2ccc(C3CCN(CCNC(=O)Nc4ccc5c(F)c(N6CC(=O)NS6(=O)=O)c(O)cc5c4)CC3)cc21 (stereo not drawn) [Degrader 52] | < 50 nM | 50 to 150 nM
31 | C[C@H]1CN(CC(=O)Nc2ccc3c(F)c(N4CC(=O)NS4(=O)=O)c(O)cc3c2)CCN1c1ccc2c(c1)n(C)c(=O)n2C1CCC(=O)NC1=O (stereo partly drawn) [Degrader 23] | 150 to 500 nM | 150 to 500 nM
32 | Cn1c(=O)n(C2CCC(=O)NC2=O)c2ccc(N3CCC(CC(=O)Nc4ccc5c(F)c(N6CC(=O)NS6(=O)=O)c(O)cc5c4)CC3)c(F)c21 (stereo not drawn) [Degrader 46] | 50 to 150 nM | 150 to 500 nM
33 | Cn1c(=O)n(C2CCC(=O)NC2=O)c2ccc([C@@H]3CCCN(CC(=O)Nc4ccc5c(F)c(N6CC(=O)NS6(=O)=O)c(O)cc5c4)C3)cc21 (stereo partly drawn) [Degrader 152] | 50 to 150 nM | 150 to 500 nM
34 | Cn1c(=O)n(C2CCC(=O)NC2=O)c2cc(F)c(-c3ccc(CC(=O)Nc4ccc5c(F)c(N6CC(=O)NS6(=O)=O)c(O)cc5c4)cc3)cc21 (stereo not drawn) [Degrader 44] | 150 to 500 nM | 150 to 500 nM
35 | C[C@@H](C(=O)Nc1ccc2c(F)c(N3CC(=O)NS3(=O)=O)c(O)cc2c1)N1CCC(c2ccc3c(c2)n(C)c(=O)n3C2CCC(=O)NC2=O)CC1 (single isomer, unassigned) [Degrader 104] | 50 to 150 nM | 50 to 150 nM
36 | Cn1c(=O)n(C2CCC(=O)NC2=O)c2ccc(C3CCN(C/C=C/c4ccc5c(F)c(N6CC(=O)NS6(=O)=O)c(O)cc5c4)CC3)cc21 (stereo not drawn) [Degrader 78] | 150 to 500 nM | ≥ 500 nM
